Source: US10196363B2, “Dihydropyrimidin-2-one compounds and medical use thereof” (JAPAN TOBACCO INC., priority 2014, dated 2019)
pEC50: −log10 of the molar value. Structures can show the parent of a compound that is named as a salt. Where two headings read alike, the source gives them in different places.

Key:
[1] = target: T1, human RORγ (Homo sapiens, UniProt P51449); experiment: In vitro assay of inhibitory effect against RORγ transcriptional activity (GAL4-hRORγ LBD luciferase reporter gene assay in CHO cells); type: cell-based
T1 construct: human RORγ, from Ser253 to Lys518; expressed in transfected cells; host or cells: CHO cells (Chinese hamster ovary), transient co-transfection with pG5-Luc
T1 sequence (P51449 253-518): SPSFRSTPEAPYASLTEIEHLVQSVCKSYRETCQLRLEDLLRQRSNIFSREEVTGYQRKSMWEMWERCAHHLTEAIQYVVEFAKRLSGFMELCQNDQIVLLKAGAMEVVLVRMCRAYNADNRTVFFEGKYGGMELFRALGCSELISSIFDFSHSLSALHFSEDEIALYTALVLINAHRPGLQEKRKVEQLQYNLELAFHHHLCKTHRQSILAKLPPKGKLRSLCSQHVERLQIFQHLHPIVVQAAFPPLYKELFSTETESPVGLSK
Procedure: (§1) In Vitro Assay of Inhibitory Effect Against RORγ Transcriptional Activity
(§2) Inhibitory effect of a test article on transcriptional activity of RORγ was measured by means of the following reporter gene assay.
(§3) cDNA encoding human and mouse RORγ ligand binding domain (LBD) were obtained based on the sequences of human RORγ (Genebank registered number NM_005060.3) and mouse RORγ (Genebank registered number NM_011281.2) (LBD sequence: human RORγ, from Ser253 to Lys518; mouse RORγ, from Ile251 to Lys516).
(§4) The LBD cDNA of human or mouse RORγ was inserted into pFA-CMV vector (Strategene), which expresses GAL4-DNA binding domain fusion protein. The resulting plasmids are hereinafter referred to as GAL4-hRORγ plasmid and GAL4-mRORγ plasmid, respectively.
(§5) GAL4-hRORγ plasmid or GAL4-mRORγ plasmid was transiently co-transfected into Chinese hamster ovary cells (CHO cells) with pG5-Luc (Promega), a reporter plasmid expressing firefly luciferase depending on GAL4.
(§6) TransIT (Registered trademark) CHO transfection reagent (Mirus) was used to co-transfect GAL4-hRORγ plasmid or GAL4-mRORγ plasmid into CHO cells with pG5-Luc plasmid. One day before the assay, CHO cells were suspended in HAM F-12 Nutrient medium containing 10 v/v % fetal bovine serum and seeded at 6×10^6 cells per 175 cm^2 cell culture flask. Fifty four micro litters of TransIT (Registered trademark) CHO reagent was added into a 15 ml tube containing 1.16 mL of HAM F-12 Nutrient medium without fetal bovine serum, and mixed and incubated at room temperature for 10 min. Thirty six micro litters of plasmid solution containing the GAL4-hRORγ plasmid (400 ng), pG5-Luc plasmid (9000 ng) and pcDNA3 plasmid (8600 ng) were added into the tube and mixed gently. In case of mouse assay, a plasmid solution containing the GAL4-mRORγ plasmid (250 ng), pG5-Luc plasmid (9000 ng) and pcDNA3 plasmid (8750 ng) was added, instead. The mixture was incubated at room temperature for 10 min. Nine micro litters of CHO Mojo Reagent were then added into each tube and mixed gently. The mixture was incubated at room temperature for 10 min. The resultant transfection reagent was applied to the cell culture. After incubation at 37° C., 5% CO2 for 4 hours, the plasmid-transfected CHO cells were harvested with a trypsin treatment. The collected cells were resuspended in HAM F-12 Nutrient medium supplemented with 10 v/v % fetal bovine serum and plated into a 384-well-white plate at 8,000 cells/50 μL/well. The plate was incubated at room temperature for 1 hour and then further incubated at 37° C., 5% CO2 for 3 hours. The test articles were dissolved in dimethylsulfoxide (DMSO) to obtain a concentration of 10 mM. The resulting solution was diluted with a medium just before use and added to the cells in the plate to prepare 8 different concentrations of the test article. The final concentration of DMSO was 0.2 v/v %. After the addition of the test articles, the cells were incubated at 37° C., 5% CO2 for 2 days.
(§7) RORγ transcriptional activity was detected as the intracellular luciferase activity using SteadyLite HTS Reporter Gene Assay System (Perkin Elmer). StedyLite Reagent was diluted five-fold into a solution containing Extension reagent (10 mM Tricine, 0.2% w/v BSA, 0.02% v/v Tween-20) to obtain the luciferase substrate solution. After the measurement of the cell viability using Resazurin, the culture media in the plate were removed, and then the luciferase substrate solution was added into each well. After the incubation at room temperature for 10 minutes, luminescence of each well was measured by a microplate reader. The luciferase activity derived from the luminescence count in the vehicle-control well treated with 0.2% DMSO alone was defined as 100%, and the luciferase activity in the test article was calculated as a percentage (%-of-control) based on the value of the vehicle-control. EC50 value of test article was calculated by curve fitting with GraphPad Prism. […]

[2] = target: T2, mouse RORγ (Mus musculus, UniProt P51450); experiment: In vitro assay of inhibitory effect against RORγ transcriptional activity (GAL4-mRORγ LBD luciferase reporter gene assay in CHO cells); type: cell-based; conditions: for mRORγ luciferase activity, %-of-control: vehicle-control 0.2% DMSO alone = 100%
T2 construct: mouse RORγ, from Ile251 to Lys516; expressed in transfected cells; host or cells: CHO cells (Chinese hamster ovary), transient co-transfection with pG5-Luc
T2 sequence (P51450 251-516): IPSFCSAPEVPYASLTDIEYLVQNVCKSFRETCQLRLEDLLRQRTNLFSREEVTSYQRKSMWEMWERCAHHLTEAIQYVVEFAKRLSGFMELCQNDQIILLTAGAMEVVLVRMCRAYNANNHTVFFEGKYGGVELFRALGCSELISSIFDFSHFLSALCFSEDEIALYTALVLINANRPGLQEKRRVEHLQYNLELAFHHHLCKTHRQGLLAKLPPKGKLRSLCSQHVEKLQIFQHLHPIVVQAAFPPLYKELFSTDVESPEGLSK
Procedure: as §1, §2, §3, §4, §5, §6, §7

[3] = GAL4-hRORγ LBD luciferase reporter, CHO cells, read-out: LUC EC50 hRORγ
[4] = GAL4-mRORγ LBD luciferase reporter, CHO cells, read-out: LUC EC50 mRORγ
[5] = GAL4-hRORγ LBD / pG5-Luc in CHO cells, 2 days incubation
[6] = GAL4-mRORγ LBD / pG5-Luc in CHO cells, 2 days incubation

SMILES | pEC50 [1, 3] | pEC50 [2, 4] | pEC50 [1, 5] | pEC50 [2, 6] | other results
COc1cc(N2C=C(C(C)C)[C@](C)(c3ccc(CCC(C)(C)C)c(C(F)(F)F)c3)NC2=O)ccc1C(=O)O [Example 345] | 7.38 | 7.64 |  |  | 
CC(C)COc1ccc([C@]2(C)NC(=O)N(CCC(=O)O)C=C2C(C)C)cc1Cl [Example 183] |  |  | 6.93 | 7.11 | 
CC(C)(C)CCc1ccc([C@]2(C)NC(=O)N(C3CC(C)(C)C3)C=C2[C@H]2C[C@H](C(=O)O)C2)cc1Cl (single isomer, unassigned) [Example 287] | 7.44 | 7.47 |  |  | 
CC(C)C1=CN(CCC(=O)O)C(=O)N[C@@]1(C)c1ccc([C@H]2C[C@@H](C(C)C)C2)c(Cl)c1 [Example 258, 3-{(S)-4-[3-Chloro-4-(3-isopropyl-cyclobutyl)-phenyl]-5-isopropyl-4-methyl-2-oxo-3,4-dihydro-2H-pyrimidin-1-yl}-propionic Acid] | 7.66 | 7.80 |  |  | 
CC(C)(C)CCc1ccc([C@]2(C)NC(=O)N(CCC(=O)O)C=C2[C@H]2C[C@@H](CO)C2)cc1Cl [Example 241] | 6.95 | 6.61 |  |  | 
CCOC(=O)c1ccc(C2(C)NC(=O)N(CCC(=O)O)C=C2C(C)C)cc1Cl (racemic) [Example 114] |  |  | 4.83 | 4.96 | 
CC(C)C1=CN(CCC(=O)O)C(=O)N[C@@]1(C)c1ccc(OCC(C)(C)C)c(Cl)c1 [Example 126] |  |  | 7.43 | 7.57 | 
CC(C)C1=CN(CCC(=O)O)C(=O)N[C@@]1(C)c1ccc(S(=O)(=O)C2CCCC2)c(Cl)c1 [Example 227] | < 4.70 | < 4.70 |  |  | hRORγ luciferase activity, %-of-control ([1]; value in parentheses beside the EC50 bound, vehicle-control 0.2% DMSO alone = 100%): (89%); mRORγ luciferase activity, %-of-control ([2]; value in parentheses beside the EC50 bound): (87%)
CC(C)(C)CCc1ccc([C@]2(C)NC(=O)N(CCCC(=O)O)C=C2C2CCCCC2)cc1Cl [Example 32] |  |  | 7.59 | 7.34 | 
CC(C)C1=CN(CC2(C(=O)O)CC2)C(=O)N[C@]1(C)c1ccc(CCC(C)(C)C)c(Cl)c1 [Example 97] |  |  | 5.87 | 5.51 | 
CC(C)(C)C1=CN(CCCC(=O)O)C(=O)NC1c1ccc(OCCC2CCCCC2)c(Cl)c1 (racemic) [Example 3] |  |  | 6.74 | 7.21 | 
CC(C)(C)CCc1ccc([C@@]2(C)NC(=O)N(CCCC(=O)O)C=C2C2CCCCC2)cc1Cl [Example 31] |  |  | 5.51 | < 5.49 | mRORγ luciferase activity, %-of-control ([2]; value in parentheses beside the > EC50 bound): (52%)
COCC(C)C1=CN(C23CCC(C(=O)O)(C2)C3)C(=O)N[C@@]1(C)c1ccc(CCC(C)(C)C)c(Cl)c1 (single isomer, unassigned) [Example 351] | 8.40 | 7.96 |  |  | 
CC(C)[C@H]1C[C@@H](c2ccc([C@]3(C)NC(=O)N([C@H]4C[C@H](C(=O)O)C4)C=C3C3CC(F)(F)C3)cc2Cl)C1 [Example 329] | 7.13 | 7.30 |  |  | 
CC(C)(C)COc1ccc(C2NC(=O)N(CCCC(=O)O)C=C2C(C)(C)C)cc1Cl (racemic) [Example 1] |  |  | 7.06 | 7.22 | 
CC(C)(C)COc1ccc([C@]2(C)NC(=O)N(C34CC(C(=O)O)(C3)C4)C=C2C2CC(F)(F)C2)cc1Cl [Example 355] | 6.95 | 7.28 |  |  | 
CC(C)C1=CN(CCC(=O)O)C(=O)N[C@@]1(C)c1ccc(C(C)CC(C)(C)C)c(Cl)c1 (stereo partly shown) [Example 179] |  |  | 7.19 | 7.57 | 
CC(C)(C)CCc1ccc([C@@]2(C)NC(=O)N(CCCC(=O)O)C=C2C2CCC2)cc1Cl [Example 58] |  |  | 5.90 | 5.78 | 
CC(C)C1=CN(c2ccc(C(=O)O)cn2)C(=O)N[C@@]1(C)c1ccc(CCC(C)(C)C)c(Cl)c1 [Example 281, 6-{(S)-4-[3-Chloro-4-(3,3-dimethyl-butyl)-phenyl]-5-isopropyl-4-methyl-2-oxo-3,4-dihydro-2H-pyrimidin-1-yl}-nicotinic Acid hydrochloride] | 7.85 | 7.68 |  |  | 
CC(C)CCSc1ccc([C@]2(C)NC(=O)N(CCC(=O)O)C=C2C(C)C)cc1Cl [Example 218] | 6.42 | 6.91 |  |  | 
